Data reported in patent US9738670B2, “Pentaaza macrocyclic ring complexes possessing oral bioavailability” (Galera Labs, LLC, priority 2015, dated 2017).

Test: Intraduodenal (id) bioavailability screen in minipigs, oil formulations, vs iv parent dichloro complex
Assay type: in vivo, Gottingen minipig
Details: for Mini-Pig BioA: id 10 mg/kg, 10% by weight formulation, AUC0->24 h vs iv 1 mg/kg parent chloro complex
Experimental: Compounds were screened for oral bioavailability by injecting the formulated prodrugs directly into the duodenum (intraduodenal or id administration) of the minipig test subjects, thus bypassing the acidic environment of the stomach and thereby eliminating potentially misleading oral bioavailability results that could arise from alteration of the test article drug in the acid environment of the stomach.
The studies were conducted at Xenometrics LLC (Stillwell, Kans.) and the Id bioavailability was determined using various axial ligand derivative complexes of GC4419, GC4444, GC4403 and GC4401.
*Where the iv dose is 1 mg of test article drug per kilogram body weight of the mini-pig, and the dose administered id is 10 mg of test article drug per kg body weight of the mini-pig.
Male Gottingen minipigs (4-5 mo old, 9-12 kg weight) were purchased from Marshall BioResources and housed at Xenometrics. […] The distal end was exteriorized with a reusable accessible hub (see surgical details below). During a recovery period of at least 2 weeks the minipigs were handled daily to acclimate them to the test procedures, i.e., id dosing and blood collections. For each experiment, each minipig received a test article drug dissolved or suspended in an excipient vehicle. […] All dosing experiments were conducted in fasted animals. Food was withdrawn from the minipigs 16 hours before dosing. The minipigs had ad libitum access to water. Dosed minipigs were allowed access to food 6 hour after dosing. The test article was administered at a dose of 10 mg/kg parent drug in 0.1 m L/kg vehicle (e.g., 1.5 mL in 15 kg minipig) as a bolus injection (˜1 minute) via the id cannula. The actual amount of total test article drug administered varied with the formula weight of the prodrug. An equal volume of excipient vehicle was used to flush the cannula after the test article was administered. Approximately 6 hours later, corn oil was used to flush the cannula. After approximately 24 hours post-dose, the catheter was flushed with sterile saline solution and capped. At the following time-points 0.25, 0.5, 1, 2, 4, 8, 24 and 48 hour post-injection, 2 mL blood samples were collected by cranial vena cava puncture (4 mL Sodium heparin Vacutainer, 20 g 1.5″ needle) after the skin surface was wiped with ethanol. The minipig was placed in a sling in a recumbent position without anesthesia for the collection of blood samples. The minipigs were never used more than once per 7 days for experimentation. The blood samples were kept on ice until processed for plasma. Blood samples were centrifuged at 1200×g for ten minutes at 4° C. and plasma samples were transferred to 96 well plate tubes, capped and stored at −20° C. until shipment on dry ice to the analytical laboratory used for measuring the concentration of drug in the plasma. The concentration of the parent manganese pentaaza macrocylic ring complex (independent of the composition of the axial ligands) was measured in plasma using a validated HPLC/MS/MS method that is linear between 50 ng/mL and 20,000 ng/mL.
The oils used for preparing the dosing solutions were used as supplied from commercial sources. The Capmul MCM (NF) is a mixture of mono/diglycerides of caprylic/capric acids and was supplied by ABITEC Corporation, Janesville, Wis. The Miglyol 812 N is a mixture of caprylic/capric acid triglycerides and was supplied by Cremer Oleo Division, Eatontown, N.J. Labrafil M 2125 CS (NF) is chemically defined to be linoleoyl polyoxyl-6 glycerides NF and was supplied by Gattefosse, SAINT-PRIEST Cedex, France. Peceol is chemically defined to be the monoglyceride, glyceryl monooleate NF, and was supplied by Gattefosse, SAINT-PRIEST Cedex, France. Maisine 35-1 is chemically defined to be the monoglyceride glyceryl monolinoleate (NF) and was supplied by Gattefosse, SAINT-PRIEST Cedex, France. Labrasol (NF) is chemically defined to be caprylocaproyl polyoxyl-8 glycerides NF and was supplied by Gattefosse, SAINT-PRIEST Cedex, France. […]

Compound	Mini-Pig BioA (base oil Capmul MCM) [%]	Mini-Pig BioA (base oil Maisine 35-1) [%]	Mini-Pig BioA (base oil Peceol) [%]	Mini-Pig BioA (base oil Labrafil M2125 CS) [%]	also measured
Manganese(II)bis-Benzoato[(4aS,13aS,17aS,21aS)-1,2,3,4,4a,5,6,12,13,13a,14,15,16,17,17a,18,19,20,21,21a-Eicosahydro-11,7-nitrilo-7H-dibenzo[b,h][1,4,7,10] tetraazacycloheptadecine-KN5, KN13, KN18, KN21, KN22]- [GC4712]	24	18	29		
Manganese(II)bis-L--valinato[(4aS,13aS,17aS,21aS)-1,2,3,4,4a,5,6,12,13,13a,14,15,16,17,17a,18,19,20,21,21a- Eicosahydro-11,7-nitrilo-7H-dibenzo[b,h][1,4,7,10] tetraazacyclo-heptadecine-KN5, KN13, KN18, KN21, KN22]- [GC4746]	13				
Manganese(II)bis-L-Lactato[(4aS,13aS,17aS,21aS)-1,2,3,4,4a,5,6,12,13,13a,14,15,16,17,17a,18,19,20,21,21a-Eicosahydro-11,7-nitrilo-7H-dibenzo[b,h][1,4,7,10] tetraazacycloheptadecine-KN5, KN13, KN18, KN21, KN22]- [GC4714]	36				
Manganese(II)bis-L-phenylalaninato[(4aS,13aS,17aS,21aS)-1,2,3,4,4a,5,6,12,13,13a,14,15,16,17,17a,18,19,20,21,21a-Eicosahydro-11,7-nitrilo-7H-dibenzo[b,h][1,4,7,10] tetraazacyclo-heptadecine-KN5, KN13, KN18, KN21, KN22]- [GC4704]	10				
Manganese(II)bis-acetato[(4aS,13aS,17aS,21aS)-1,2,3,4,4a,5,6,12,13,13a,14,15,16,17, 17a,18,19,20,21,21a-Eicosahydro-11,7-nitrilo-7H-dibenzo[b,h][1,4,7,10] tetraazacycloheptadecine-KN5,KN13,KN18,KN21,KN22]- [GC4701]	15	8	11	16	
Manganese(II)bis-n-Butyrato[(4aS,13aS,17aS,21aS)-1,2,3,4,4a,5,6,12,13,13a,14,15,16,17,17a,18,19,20,21,21a-Eicosahydro-11,7-nitrilo-7H-dibenzo[b,h][1,4,7,10] tetraazacycloheptadecine-KN5, KN13, KN18, KN21, KN22]- [GC4713]			18	21	
Manganese(II)bis-pivaloato[(4aS,13aS,17aS,21aS)-1,2,3,4,4a,5,6,12,13,13a,14,15,16,17, 17a,18,19,20,21,21a-Eicosahydro-11,7-nitrilo-7H-dibenzo[b,h][1,4,7,10] tetraazacycloheptadecine-KN5, KN13, KN18, KN21, KN22]- [GC4709]	17			22	
Manganese(II)bis-propionato[6R-Methyl(4aR,13aR,17aR,21aR)-1,2,3,4,4a,5,6,12,13,13a,14,15,16,17,17a,18,19,20,21,21a-Eicosahydro-11,7-nitrilo-7H-dibenzo[b,h][1,4,7,10] tetraazacycloheptadecine-KN5, KN13, KN18, KN21, KN22]- [GC4747]				20	
Manganese(II)bis-propionato[(4aR,13aR,17aR,21aR)-1,2,3,4,4a,5,6,12,13,13a,14,15,16,17,17a,18,19,20,21,21a-Eicosahydro-11,7-nitrilo-7H-dibenzo[b,h][1,4,7,10] tetraazacycloheptadecine-KN5, KN13, KN18, KN21, KN22]- [GC4748]				22	
Manganese(II)bis-rac-Mandelato[(4aS,13aS,17aS,21aS)-1,2,3,4,4a,5,6,12,13,13a,14,15,16,17,17a,18,19,20,21,21a-Eicosahydro-11,7-nitrilo-7H-dibenzo[b,h][1,4,7,10] tetraazacycloheptadecine-KN5, KN13, KN18, KN21, KN22]- [GC4706]	28				

Continued, in another order:

Mini-Pig BioA (base oil Capmul MCM) [%]	Mini-Pig BioA (base oil Maisine 35-1) [%]	Mini-Pig BioA (base oil Peceol) [%]	Mini-Pig BioA (base oil Labrafil M2125 CS) [%]	Compound	also measured
14				C[C@@H]1CN[C@@H]2CCCC[C@H]2NCc2cccc(n2)CN[C@@H]2CCCC[C@H]2N1.[Cl][Mn][Cl] [GC4444, reference compound]	
43		29	25	Manganese(II)bis-L-phenylglycinato[(4aS,13aS,17aS,21aS)-1,2,3,4,4a,5,6,12,13,13a, 14,15,16,17,17a,18,19,20,21,21a-Eicosahydro-11,7-nitrilo-7H-dibenzo[b,h][1,4,7,10] tetraazacyclo-heptadecine-KN5, KN13, KN18, KN21, KN22]- [GC4702]	Mini-Pig BioA (base oil Miglyol 812N): 42%; bioavailability / absorption, in words (minipig id dosing, comparison between axial ligands): much better absorbed
9				Manganese(II)bis-cyclohexanebutyrato[(4aS,13aS,17aS,21aS)-1,2,3,4,4a,5,6,12,13,13a, 14,15,16,17,17a,18,19,20,21,21a-Eicosahydro-11,7-nitrilo-7H-dibenzo[b,h][1,4,7,10] tetraazacyclo-heptadecine-KN5, KN13, KN18, KN21, KN22]- [GC4707]	
12				Manganese(II)bis-dodecanoato[(4aS,13aS,17aS,21aS)-1,2,3,4,4a,5,6,12,13, 13a,14,15,16,17,17a,18,19,20,21,21a-Eicosahydro-11,7-nitrilo-7H-dibenzo[b,h][1,4,7,10] tetraazacycloheptadecine-KN5, KN13, KN18, KN21, KN22]- [GC4708]	
13	8		21	Manganese(II)bis-octanoato[(4aS,13aS,17aS,21aS)-1,2,3,4,4a,5,6,12,13,13a,14,15,16, 17,17a,18,19,20,21,21a-Eicosahydro-11,7-nitrilo-7H-dibenzo[b,h][1,4,7,10] tetraazacycloheptadecine-KN5, KN13, KN18, KN21, KN22]- [GC4710]	
32	28			Manganese(II)bis-phenylacetato[(4aS,13aS,17aS,21aS)-1,2,3,4,4a,5,6,12,13,13a,14, 15,16,17,17a,18,19,20,21,21a-Eicosahydro-11,7-nitrilo-7H-dibenzo[b,h][1,4,7,10] tetraazacyclo-heptadecine-KN5, KN13, KN18, KN21, KN22]- [GC4718]	
25	31	28		Manganese(II)bis-phenylglyoxaloto[(4aS,13aS,17aS,21aS)-1,2,3,4,4a,5,6,12,13,13a,14, 15,16,17,17a,18,19,20,21,21a-Eicosahydro-11,7-nitrilo-7H-dibenzo[b,h][1,4,7,10] tetraazacyclohepta-decine-KN5, KN13, KN18, KN21, KN22]- [GC4719]	
27	29	29	44	Manganese(II)bis-propionato[(4aS,13aS,17aS,21aS)-1,2,3,4,4a,5,6,12,13,13a,14,15,16, 17,17a,18,19,20,21,21a-Eicosahydro-11,7-nitrilo-7H-dibenzo[b,h][1,4,7,10] tetraaza-cycloheptadecine-KN5, KN13, KN18, KN21, KN22]- [GC4711]	Mini-Pig BioA (base oil Labrafil M1944 CS): 23%
